From patent EP0111112A1, “Granular pesticidal compositions coated with hydrophobic solids with attendant reduced dermal toxicity” (priority 1982, dated 1984)

Tests used:
[1] = Dermal toxicity of pesticidal formulations in male albino rabbits; conditions: rabbit, in vivo, topical or ocular, 24 hours contact, observed 14 days
Excerpt: Five male albino rabbits weighing approximately 2.2 to 3.5 kilograms are selected for each dosage level. The hair is shaved from the entire trunk.
The following materials are used in dermal toxicity tests: • (a.) Saran tubing or "vinylite" film VU 1900, 30.5 cm (12") wide, 0.04 millimeter in thickness, and long enough to fit around the rabbit; (b.) Felt cloth bandages measuring approximately 22.9 x 45.7 cm (9" x 18"); (c.) pieces of 3.8 cm (1.5") adhesive tape approximately 35.6 cm (14") long.
Granular material to be evaluated is placed in the center of the plastic film and is moistened with water. The rabbits' underside is then moistened with water, and the animals are placed, belly down, on. the material. The plastic is then brought up and around the animal and secured at each end with strips of adhesive tape. The felt cloth is then placed under the belly and brought up and around the animal and secured to the body with the remaining two strips of adhesive tape. The "cuff" is removed from the test animals 24 hours after dosing, and any remaining material is brushed away. If the test material cannot be removed, the animal is fitted with a fiber collar which prevents the animal from licking the treatment area. […]
The dermal LD50 values (mg/kg/ body weight) are. calculated for experimental data for the compositions evaluated. […]

[2] = Dermal toxicity of pesticidal formulations in male rats; conditions: rat, in vivo, topical or ocular, male Wistar rats, 24 hours contact, observed 14 days
Method: Five male Wistar rats weighing approximately 209 to 277 g are selected for each dosage level. The hair is shaved from the ventral surface of the abdomen.
Granular material for evaluation is mixed with an equal weight of water on an aluminum foil backed with a plastic adhesive strapping. This preparation is then applied to the shaven ventral surface of the animal and fastened in place with adhesive strapping. After a contact time of 24 hours, the strapping is removed and the skin is washed with soap and water. The animals are then observed for 14 days for skin irritation or mortality. After this observation period, the animals are sacrificed and weighed.
Dermal LD50 values (mg/kg body weight) are calculated from experimental data for the compositions evaluated. The LD50 values obtained are averaged. […] Compositions A and B of Table III are as defined in Table I.

CCOP(=S)(OCC)SCSC(C)(C)C [O,O-diethyl S-{[(1,1-dimethylethyl)-thio]methyl}phosphorodithioate]
LD50 at 336 h [1]: 1 to 2 mg/kg
LD50 at 336 h [2]: 1 to 2 mg/kg
